Literature values, collected in patent publication EP4691460A1, “RAMELTEON SUBLINGUAL FILM AND PREPARATION METHOD THEREFOR” (Hangzhou Chengbang Pharmaceutical Technology Co., Ltd, priority 2023, dated 2024).

What was measured:
MT1 receptors = MT1 receptors (Homo sapiens, UniProt P48039); conditions: fraction of the affinity of ramelteon
MT2 receptors = molecular target: T1, MT2 receptors (Homo sapiens, UniProt P49286); conditions: fraction of the affinity of ramelteon
T1 sequence (P49286 1-362): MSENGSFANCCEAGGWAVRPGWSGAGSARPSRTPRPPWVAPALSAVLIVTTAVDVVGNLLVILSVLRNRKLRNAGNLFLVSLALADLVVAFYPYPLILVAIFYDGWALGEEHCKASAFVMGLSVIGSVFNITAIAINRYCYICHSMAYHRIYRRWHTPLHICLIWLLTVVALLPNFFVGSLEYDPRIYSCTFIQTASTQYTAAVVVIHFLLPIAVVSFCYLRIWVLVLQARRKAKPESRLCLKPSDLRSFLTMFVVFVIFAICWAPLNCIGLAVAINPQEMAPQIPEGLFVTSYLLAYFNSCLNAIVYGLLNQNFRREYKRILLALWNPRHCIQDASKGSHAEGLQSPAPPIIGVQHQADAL

[1] = oral administration, clinical data
[2] = taken with a high-fat meal versus fasting

MT1 receptors, sequence (P48039 whole entry): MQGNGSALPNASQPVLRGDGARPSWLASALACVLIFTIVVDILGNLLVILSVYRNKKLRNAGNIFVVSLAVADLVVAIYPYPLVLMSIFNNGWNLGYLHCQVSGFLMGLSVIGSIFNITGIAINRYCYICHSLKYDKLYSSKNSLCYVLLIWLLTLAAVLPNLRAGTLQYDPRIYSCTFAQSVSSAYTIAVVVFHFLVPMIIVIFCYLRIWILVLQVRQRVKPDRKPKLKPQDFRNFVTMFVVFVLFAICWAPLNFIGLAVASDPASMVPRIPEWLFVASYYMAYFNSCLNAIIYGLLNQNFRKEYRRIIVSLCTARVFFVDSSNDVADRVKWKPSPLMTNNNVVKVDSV

CC(O)C(=O)NCC[C@@H]1CCc2ccc3c(c21)CCO3 (stereo partly drawn) [M-II]
affinity with MT1 receptors relative to the metabolic substrate (MT1 receptors): about one fifth
affinity with MT2 receptors relative to the metabolic substrate (MT2 receptors): one tenth
total amount relative to the metabolic substrate (main metabolite versus ramelteon): 20-100 times

CCC(=O)NCC[C@@H]1CCc2ccc3c(c21)CCO3 [ramelteon, Ramelteon]
drug absorbed after oral administration [1]: At least 84%
median time to peak drug concentration [1]: approximately 0.75 (0.5-1.5) h
absolute bioavailability (oral administration, first pass effect): 1.4%
AUC higher than that of fasting administration (taken with a high-fat meal): 31%
Cmax reduction [2]: 22%
median Tmax delay [2]: 45 min
